Conditions: Liquid; for mass density: Vibrating tube method; for thermal conductivity: Hot wire method

CCCC[n+]1ccccc1.F[B-](F)(F)F [1-butylpyridinium tetrafluoroborate]
Conditions	mass density, 293.15 K [kg/m3]	mass density, 303.15 K [kg/m3]	mass density, 313.15 K [kg/m3]	mass density, 323.15 K [kg/m3]	mass density, 333.15 K [kg/m3]	mass density, 343.15 K [kg/m3]	mass density, 353.15 K [kg/m3]	thermal conductivity, 294.2 K [W/m/K]	thermal conductivity, 314.3 K [W/m/K]	thermal conductivity, 334.3 K [W/m/K]
100 kPa	1216.5	1209.5	1202.6	1196	1188.9	1182	1175.4	0.171	0.17	0.169
5000 kPa	1219	1211.9	1205.1	1198.5	1191.4	1184.5	1177.9	–	–	–
10000 kPa	1221.1	1214.3	1207.6	1200.9	1193.9	1187	1180.6	0.171	0.171	0.171
15000 kPa	1223.4	1216.4	1209.9	1203.2	1196.4	1189.5	1183.3	–	–	–
20000 kPa	1225.5	1218.7	1212	1205.5	1198.8	1191.9	1185.8	0.173	0.173	0.172

CCCCCCCC[n+]1ccccc1.F[B-](F)(F)F [1-octylpyridinium tetrafluoroborate]
Conditions	mass density, 293.15 K [kg/m3]	mass density, 303.15 K [kg/m3]	mass density, 313.15 K [kg/m3]	mass density, 323.15 K [kg/m3]	mass density, 333.15 K [kg/m3]	mass density, 343.15 K [kg/m3]	mass density, 353.15 K [kg/m3]	thermal conductivity, 294.2 K [W/m/K]	thermal conductivity, 314.3 K [W/m/K]	thermal conductivity, 334.3 K [W/m/K]
100 kPa	1111.2	1104.4	1097.6	1091.1	1084.4	1077.9	1071.6	0.16	0.16	0.158
5000 kPa	1113.8	1107.1	1100.3	1093.9	1087.1	1080.7	1074.4	–	–	–
10000 kPa	1116.2	1109.6	1103	1096.6	1089.9	1083.6	1077.3	0.163	0.161	0.159
15000 kPa	1118.6	1112.1	1105.4	1099	1092.6	1086.2	1080.1	–	–	–
20000 kPa	1120.9	1114.4	1107.8	1101.5	1095.2	1089	1083	0.165	0.164	0.161

CCCCCC[n+]1ccccc1.F[B-](F)(F)F [1-hexylpyridinium tetrafluoroborate]
Conditions	mass density, 293.15 K [kg/m3]	mass density, 303.15 K [kg/m3]	mass density, 313.15 K [kg/m3]	mass density, 323.15 K [kg/m3]	mass density, 333.15 K [kg/m3]	mass density, 343.15 K [kg/m3]	mass density, 353.15 K [kg/m3]	thermal conductivity, 294.2 K [W/m/K]	thermal conductivity, 314.3 K [W/m/K]	thermal conductivity, 334.3 K [W/m/K]
100 kPa	1157	1150.3	1143.5	1137	1130	1123.4	1116.8	0.163	0.163	0.161
5000 kPa	1159.5	1152.9	1146.1	1139.7	1132.7	1126	1119.5	–	–	–
10000 kPa	1161.8	1155.3	1148.7	1142.2	1135.2	1128.7	1122.3	0.165	0.163	0.162
15000 kPa	1164.1	1157.6	1151.1	1144.5	1137.8	1131.2	1125	–	–	–
20000 kPa	1166.5	1159.9	1153.4	1146.9	1140.3	1133.8	1127.6	0.166	0.164	0.163
